Data on 1 compound can be found in patent publication US7981875B2, “2″ oxo-voruscharin and derivatives thereof” (priority 2002, dated 2011).

SMILES strings stand for the structures.

For orientation: IC50 means the concentration that gives 50% inhibition. Higher therefore signals weaker potency.

For test [1], the system named is PC-3 orthotopic xenograft. The experiment in a line: Orthotopic refractory prostate cancer model. The settings on record: from 7th day post-graft. It counts as in vivo, nude mice. How it is done:
Three types of results were obtained with in vivo anti-tumor pharmacology: 1) the cumulative toxicity of chemotherapeutic administrations through recording the weights of the tumor-bearing mice during treatment, 2) the actual anti-tumor effect exerted at tumor growth level. If the tumor models are grafted subcutaneously (s.c.), tumor size is measured three times a week by means of a caliper and expressed as an area (mm^2) by multiplying together the two largest perpendicular diameters, and 3) the gain in survival for the animals treated, which is evaluated by means of the T/C index. This index is the ratio between the median survival time of the group of treated animals (T) and that of the control group. The drug is considered to be active if the T/C value is above 130% (P<0.05), and toxic for a value lower than 70%.
In addition to the xenografted models of Example 6, the antitumoral activity of compound B was evaluated in orthotopic xenografted models PC3 (Prostate) and Capan2 (Pancreas).
Compound B was evaluated in vivo on highly invasive orthotopic PC-3 refractory prostate cancer model by measurement of T/C index, as described in Example 6 of the specification.

In a further test the test system is PC-3 (Prostate). The experiment in a line: MTT test, overall cell growth. In kind it is cell-based, human. The conditions noted are these: PC-3 cell line. How it is done: (§1) In order to characterize the in vitro activities of the compounds according to the invention, MTT tests were carried out. The MTT test, which is a well-known test in the art, is an indirect technique that rapidly measures, i.e. within 5 days, the effect of a given product on the overall cell growth. This test measures the number of metabolically active living cells that are able to transform the MTT product (3-(4,5-dimethylthiazol-2-yl)-2,5 diphenyl tetrazolium bromide), having a yellowish color, to the blue product formazan dye by mitochondrial reduction. The amount of formazan obtained at the end of the experiment is measured with a spectrophotometer and is directly proportional to the number of living cells. Determination of the optical density enables a quantitative measurement of the effect of the investigated compounds as compared to the control condition (untreated cells) and to compare it to other reference compound. […]
(§2) After 72 hours of incubation at 37° C. with the compound (experimental conditions) or without the compound (control condition), the medium was replaced by 100 μl MTT at the concentration of 1 mg/ml dissolved in RPMI. […] The micro wells were shaken for 5 minutes and read on a spectrophotometer at the wavelengths of 570 nm corresponding to the maximum formazan absorbance wavelength, and of 630 nm, which is the background noise wavelength. […]
On the technique in general: Formazan colour is commonly taken as a measure of viable cells.

Another test has as its system Capan-2 (Pancreas). The experiment in a line: MTT test, overall cell growth. In kind it is cell-based, human. The settings on record: Capan-2 cell line. How it is done:
as §1, §2

With `CC1CC2(NC(=O)CS2)C2(O)OC3CC4(CO)C(CCC5C4CCC4(C)C(C6=CC(=O)OC6)CCC54O)CC3OC2O1` (stereo not shown) [Compound B], the T/C value is reported as 177% in test [1] (i.p. DMT/4 (20 mg/kg), 5ix6w) and 132% in test [1] (per os DMT/2 (40 mg/kg), 5dx6w). Further, the IC50 with PC-3 (Prostate) is 5 to 10 nM; with Capan-2 (Pancreas) it was 1 nM.
